Reference: US9695155B2, “Herbicidal substituted pyrimidinyloxy benzene compounds” (E. I. DU PONT DE NEMOURS AND COMPANY, priority 2013, dated 2017)

How the values were obtained:
wheat, winter = test: Test C postemergence; type: in vivo, Triticum aestivum; settings: for Plant response rating, Wheat: scale 0 to 100 (0 no effect, 100 complete control)
Method in brief: (§1)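 Visual ratings on a 0–100 scale (100 = complete control) were made versus untreated controls after 13–15 greenhouse days. Chemicals in a surfactant-containing non-phytotoxic solvent were applied either preemergence to seeds in loam–sand soil or postemergence to 1- to 4-leaf plants 2–18 cm tall.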

blackgrass = test: Test C postemergence; type: in vivo, Alopecurus myosuroides
Method in brief: as §1

johnsongrass = test: Test C postemergence; type: in vivo, Sorghum halepense
Method in brief: as §1

giant foxtail = test: Test A preemergence; type: in vivo, Setaria faberii; settings: for Foxtail, Giant plant response rating: 0 to 100 scale, 0 no effect, 100 complete control, approx. 10 days
Method in brief: (§2)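 Compounds in non-phytotoxic solvent with surfactant applied as soil spray preemergence, or postemergence to plants 2-10 cm at one- to two-leaf stage, in loam/sand. After approximately 10 days in greenhouse, injury rated visually versus untreated controls, 0 (no effect) to 100 (complete control).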

pigweed = test: Test C postemergence; type: in vivo, Amaranthus retroflexus; settings: for Plant response rating, Pigweed: scale 0 to 100 (0 no effect, 100 complete control)
Method in brief: as §1

soybean = test: Test C postemergence; type: in vivo, Glycine max; settings: for Plant response rating, Soybean: scale 0 to 100 (0 no effect, 100 complete control)
Method in brief: as §1

ragweed = test: Test C postemergence; type: in vivo, Ambrosia elatior; settings: for Plant response rating, Ragweed: scale 0 to 100 (0 no effect, 100 complete control)
Method in brief: as §1

galium = test: Test C postemergence; type: in vivo, Galium aparine
Method in brief: as §1

kochia = test: Test C postemergence; type: in vivo, Kochia scoparia
Method in brief: as §1

velvetleaf = test: Test C postemergence; type: in vivo, Abutilon theophrasti; settings: for Plant response rating, Velvetleaf: scale 0 to 100 (0 no effect, 100 complete control)
Method in brief: as §1

waterhemp = test: Test C postemergence; type: in vivo, Amaranthus rudis; settings: for Plant response rating, Waterhemp: scale 0 to 100 (0 no effect, 100 complete control)
Method in brief: as §1

corn = test: Test A postemergence; type: in vivo, Zea mays
Method in brief: as §2

oilseed rape = test: Test C postemergence; type: in vivo, Brassica napus; settings: for Plant response rating, Oilseed Rape: scale 0 to 100 (0 no effect, 100 complete control)
Method in brief: as §1

[1] = Postemergence, 31 g ai/ha, 13 to 15 days
[2] = 16 g ai/ha, postemergence, visual rating, scale 0 to 100 (0 no effect, 100 complete control), 13 to 15 days
[3] = Postemergence, 31 g ai/ha, scale 0 to 100 (0 no effect, 100 complete control), 13 to 15 days
[4] = Postemergence, 62 g ai/ha, scale 0 to 100 (0 no effect, 100 complete control)
[5] = 125 g ai/ha, 0 to 100 scale where 0 is no effect and 100 is complete control
[6] = 16 g ai/ha, postemergence, 0 is no effect, 100 is complete control
[7] = 125 g ai/ha, postemergence, visual rating
[8] = 125 g ai/ha, postemergence, visual rating, scale 0 to 100 (0 no effect, 100 complete control)

## Cc1cnc(Oc2cccc(C#N)c2-n2cc(C#N)cn2)nc1 [Compound 90]
wheat, winter; 125 g ai/ha, postemergence
  Plant response rating (0 to 100), Wheat: 0
wheat, winter; [1]
  Plant response rating, Wheat: 0
wheat, winter; Postemergence, 62 g ai/ha
  Plant response rating, Wheat: 0
blackgrass; [2]
  Blackgrass plant response rating: 0
blackgrass; 125 g ai/ha, postemergence
  Plant response rating (0 to 100), Blackgrass: 15
blackgrass; [3]
  Plant response rating, Blackgrass: 0
blackgrass; [4]
  Plant response rating, Blackgrass: 5
johnsongrass; [2]
  Johnsongrass plant response rating: 0
johnsongrass; 125 g ai/ha, postemergence
  Plant response rating (0 to 100), Johnsongrass: 5
johnsongrass; [3]
  Plant response rating, Johnsongrass: 5
johnsongrass; [4]
  Plant response rating, Johnsongrass: 5
Giant foxtail; [5]
  Plant response rating, Foxtail, Giant: 90
Giant foxtail; 500 g ai/ha
  Foxtail, Giant plant response rating: 100
pigweed; 125 g ai/ha, postemergence
  Plant response rating (0 to 100), Pigweed: 70
pigweed; [1]
  Plant response rating, Pigweed: 45
pigweed; Postemergence, 62 g ai/ha
  Plant response rating, Pigweed: 45
soybean; 125 g ai/ha, postemergence
  Plant response rating (0 to 100), Soybean: 60
soybean; [1]
  Plant response rating, Soybean: 65
soybean; Postemergence, 62 g ai/ha
  Plant response rating, Soybean: 75
ragweed; 125 g ai/ha, postemergence
  Plant response rating (0 to 100), Ragweed: 65
ragweed; [1]
  Plant response rating, Ragweed: 40
ragweed; Postemergence, 62 g ai/ha
  Plant response rating, Ragweed: 50
galium; [2]
  Galium plant response rating: 70
galium; 125 g ai/ha, postemergence
  Plant response rating (0 to 100), Galium: 85
galium; [3]
  Plant response rating, Galium: 55
galium; [4]
  Plant response rating, Galium: 65
kochia; [2]
  Kochia plant response rating: 45
kochia; 125 g ai/ha, postemergence
  Plant response rating (0 to 100), Kochia: 90
kochia; [3]
  Plant response rating, Kochia: 70
kochia; [4]
  Plant response rating, Kochia: 45
velvetleaf; 125 g ai/ha, postemergence
  Plant response rating (0 to 100), Velvetleaf: 60
velvetleaf; [1]
  Plant response rating, Velvetleaf: 55
velvetleaf; Postemergence, 62 g ai/ha
  Plant response rating, Velvetleaf: 60
waterhemp; 125 g ai/ha, postemergence
  Plant response rating (0 to 100), Waterhemp: 75
waterhemp; [1]
  Plant response rating, Waterhemp: 35
waterhemp; Postemergence, 62 g ai/ha
  Plant response rating, Waterhemp: 65
corn; [5]
  Plant response rating, Corn: 0
corn; 500 g ai/ha, 0 to 100 scale where 0 is no effect and 100 is complete control
  Plant response rating, Corn: 80
Oilseed rape; 125 g ai/ha, postemergence
  Plant response rating (0 to 100), Oilseed Rape: 40
Oilseed rape; [1]
  Plant response rating, Oilseed Rape: 5
Oilseed rape; Postemergence, 62 g ai/ha
  Plant response rating, Oilseed Rape: 50

## FCc1cn(-c2ccccc2Oc2ncc(Cl)cn2)nn1 [Compound 123]
wheat, winter; [6]
  Plant response rating (0 to 100), Wheat: 0
wheat, winter; [7]
  Plant response rating, Wheat: 5
wheat, winter; Postemergence, 62 g ai/ha
  Plant response rating, Wheat: 0
blackgrass; [6]
  Plant response rating (0 to 100), Blackgrass: 0
blackgrass; [8]
  Plant response rating, Blackgrass: 0
blackgrass; [3]
  Plant response rating, Blackgrass: 0
blackgrass; [4]
  Plant response rating, Blackgrass: 0
johnsongrass; [6]
  Plant response rating (0 to 100), Johnsongrass: 10
johnsongrass; [8]
  Plant response rating, Johnsongrass: 10
johnsongrass; [4]
  Plant response rating, Johnsongrass: 10
Giant foxtail; 1000 g ai/ha
  Foxtail, Giant plant response rating: 100
pigweed; [6]
  Plant response rating (0 to 100), Pigweed: 70
pigweed; [7]
  Plant response rating, Pigweed: 85
pigweed; Postemergence, 62 g ai/ha
  Plant response rating, Pigweed: 85
soybean; [6]
  Plant response rating (0 to 100), Soybean: 45
soybean; [7]
  Plant response rating, Soybean: 90
soybean; Postemergence, 62 g ai/ha
  Plant response rating, Soybean: 65
ragweed; [6]
  Plant response rating (0 to 100), Ragweed: 35
ragweed; [7]
  Plant response rating, Ragweed: 75
ragweed; Postemergence, 62 g ai/ha
  Plant response rating, Ragweed: 70
galium; [6]
  Plant response rating (0 to 100), Galium: 40
galium; [8]
  Plant response rating, Galium: 90
galium; [4]
  Plant response rating, Galium: 85
kochia; [6]
  Plant response rating (0 to 100), Kochia: 50
kochia; [8]
  Plant response rating, Kochia: 85
kochia; [4]
  Plant response rating, Kochia: 70
velvetleaf; [6]
  Plant response rating (0 to 100), Velvetleaf: 60
velvetleaf; [7]
  Plant response rating, Velvetleaf: 100
velvetleaf; Postemergence, 62 g ai/ha
  Plant response rating, Velvetleaf: 80
waterhemp; [6]
  Plant response rating (0 to 100), Waterhemp: 25
waterhemp; [7]
  Plant response rating, Waterhemp: 80
waterhemp; Postemergence, 62 g ai/ha
  Plant response rating, Waterhemp: 80
corn; 1000 g ai/ha, 0 to 100 scale, 0 no effect, 100 complete control
  Plant response rating, Corn: 70
Oilseed rape; [6]
  Plant response rating (0 to 100), Oilseed Rape: 30
Oilseed rape; [7]
  Plant response rating, Oilseed Rape: 70
Oilseed rape; Postemergence, 62 g ai/ha
  Plant response rating, Oilseed Rape: 60
